The results in this text go back to patent US4276378A, “High sensitivity assays for angiotensin converting enzyme” (priority 1977, dated 1981).

Peptide text beside a SMILES is read from it. * marks the point of attachment. Bz = O=C(c1ccccc1)*

What is called Km is the concentration of substrate that gives half-maximal velocity. Broadly, the Vmax is the rate approached at saturating substrate.

Data set [1] deals with T1, Guinea pig serum ACE (Cavia porcellus, UniProt H0UWL7).
T1 sequence (H0UWL7 33-1234): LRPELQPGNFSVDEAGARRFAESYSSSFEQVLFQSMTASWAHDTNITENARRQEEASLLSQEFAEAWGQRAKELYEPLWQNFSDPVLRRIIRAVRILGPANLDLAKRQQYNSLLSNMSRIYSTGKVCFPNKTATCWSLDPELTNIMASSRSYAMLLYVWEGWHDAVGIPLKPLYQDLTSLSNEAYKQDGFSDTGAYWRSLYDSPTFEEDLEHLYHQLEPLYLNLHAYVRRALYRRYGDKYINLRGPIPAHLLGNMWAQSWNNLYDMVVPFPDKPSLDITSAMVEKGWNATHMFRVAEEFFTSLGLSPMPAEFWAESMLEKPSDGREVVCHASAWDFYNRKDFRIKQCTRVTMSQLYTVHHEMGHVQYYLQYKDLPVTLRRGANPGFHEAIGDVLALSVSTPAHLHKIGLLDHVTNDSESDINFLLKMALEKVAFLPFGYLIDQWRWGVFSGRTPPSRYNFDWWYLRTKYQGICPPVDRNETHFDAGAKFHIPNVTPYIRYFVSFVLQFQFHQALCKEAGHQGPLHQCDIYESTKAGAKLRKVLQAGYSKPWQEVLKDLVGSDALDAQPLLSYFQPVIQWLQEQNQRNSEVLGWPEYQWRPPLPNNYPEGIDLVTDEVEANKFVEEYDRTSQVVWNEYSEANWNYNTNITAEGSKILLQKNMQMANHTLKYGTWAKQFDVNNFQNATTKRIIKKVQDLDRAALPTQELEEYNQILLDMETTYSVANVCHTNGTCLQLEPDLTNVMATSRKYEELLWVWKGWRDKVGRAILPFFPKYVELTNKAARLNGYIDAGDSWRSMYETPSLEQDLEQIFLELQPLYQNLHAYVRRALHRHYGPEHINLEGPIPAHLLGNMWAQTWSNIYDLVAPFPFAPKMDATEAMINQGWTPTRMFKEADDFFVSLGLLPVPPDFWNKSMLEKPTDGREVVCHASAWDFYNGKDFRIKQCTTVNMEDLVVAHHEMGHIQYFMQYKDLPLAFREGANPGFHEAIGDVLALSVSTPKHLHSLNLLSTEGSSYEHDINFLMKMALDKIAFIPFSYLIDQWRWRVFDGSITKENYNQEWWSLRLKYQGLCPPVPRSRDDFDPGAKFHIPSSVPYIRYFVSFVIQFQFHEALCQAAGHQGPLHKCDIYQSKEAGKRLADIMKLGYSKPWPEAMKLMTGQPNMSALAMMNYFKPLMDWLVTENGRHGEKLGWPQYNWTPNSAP
As to the kind of experiment: Kinetics of sulfate-stimulated HipHisLeu hydrolysis (Example 4). The data set is classed as biochemical. The note with it: for V (reaction velocity): pH 8.0, 0.1 M NaCl, 37° C., 10 minutes; for V (reaction velocity) / 1/V: 0.75 M Na2 SO4; for 1/V: 0.1 M NaCl. As to the method: In each assay, 50 μl of Guinea pig serum diluted 1-20 (v/v) in the reaction buffer was mixed with 50 μl of buffer containing sufficient ^3 H-HipHisLeu to provide approximately 100,000 cpm total, together with sufficient unlabeled HipHisLeu to produce the desired substrate concentrations, as indicated in Table 2. […] The reaction mixture was then extracted with 1 ml ethyl acetate. 500 μl of the ethyl acetate fraction was sampled and counted in a scintillation counter.

For another data set, the system named is ACE. As to the kind of experiment: Apparent Km for HipHisLeu without sulfate. The data set is classed as biochemical.
The target of data set [2] is T1, Guinea pig serum ACE. Briefly: Kinetics of benzoyl-Phe-Ala-Pro hydrolysis (Example 6). The data set is classed as biochemical. As to conditions: for V (reaction velocity): 37° C., 10 minutes.
A short description of data set [3]: Solvent extraction of substrate and remnant product from acidified reaction mixture. It counts as physicochemical. An excerpt: While a variety of organic solvents may be suitable for the extraction step, it is preferred to employ toluene.

`CC(C)C[C@H](NC(=O)[C@H](Cc1c[nH]cn1)NC(=O)CNC(=O)c1ccccc1)C(=O)O` [HipHisLeu] (Bz-Gly-His-Leu-OH): the Km was 177 µM at Guinea pig serum ACE [1] (0.05 M Hepes, pH 8.0, 0.1 M NaCl and 0.75 M Na2 SO4, Lineweaver and Burke plot, read-out: apparent Km); ~2600 µM in the data set on ACE. Also, the “V (reaction velocity)” value was 0.30 nmol/min/mL on Guinea pig serum ACE [1] (HipHisLeu concentration 0.01 mM, 0.05 M Hepes); 0.52 nmol/min/mL at Guinea pig serum ACE [1] (HipHisLeu concentration 0.02 mM, 0.05 M Hepes); 0.74 nmol/min/mL on Guinea pig serum ACE [1] (HipHisLeu concentration 0.03 mM, 0.05 M Hepes); 1.28 nmol/min/mL on Guinea pig serum ACE [1] (HipHisLeu concentration 0.04 mM, 0.05 M Hepes); 1.14 nmol/min/mL on Guinea pig serum ACE [1] (HipHisLeu concentration 0.05 mM, 0.05 M Hepes); 1.28 nmol/min/mL on Guinea pig serum ACE [1] (HipHisLeu concentration 0.06 mM, 0.05 M Hepes). Further, the “V (reaction velocity)” value on Guinea pig serum ACE [1] (HipHisLeu concentration 0.07 mM, 0.05 M Hepes) stood at 2.14 nmol/min/mL; at Guinea pig serum ACE [1] (HipHisLeu concentration 0.08 mM, 0.05 M Hepes), 1.76 nmol/min/mL. The 1/V at Guinea pig serum ACE [1] (HipHisLeu concentration 0.01 mM) amounted to 3.33 mL·min/nmol; on Guinea pig serum ACE [1] (HipHisLeu concentration 0.02 mM), 1.92 mL·min/nmol; on Guinea pig serum ACE [1] (HipHisLeu concentration 0.03 mM) it was 1.35 mL·min/nmol; on Guinea pig serum ACE [1] (HipHisLeu concentration 0.04 mM), 0.78 mL·min/nmol; at Guinea pig serum ACE [1] (HipHisLeu concentration 0.05 mM), 0.88 mL·min/nmol; at Guinea pig serum ACE [1] (HipHisLeu concentration 0.06 mM), 0.78 mL·min/nmol. The 1/V at Guinea pig serum ACE [1] (HipHisLeu concentration 0.07 mM) came to 0.47 mL·min/nmol; at Guinea pig serum ACE [1] (HipHisLeu concentration 0.08 mM), 0.57 mL·min/nmol.
As to `C[C@H](NC(=O)[C@H](Cc1ccccc1)NC(=O)c1ccccc1)C(=O)N1CCC[C@H]1C(=O)O` [benzoylPheAlaPro, benzoyl-Phe-Ala-Pro] (Bz-Phe-Ala-Pro-OH), the Vmax on Guinea pig serum ACE [2] (0.05 M Hepes, pH 8.0, 0.15 M NaCl, Guinea pig serum diluted 1:1000) turned out to be 10 pmol/min/mL. In addition, on Guinea pig serum ACE [2] (0.05 M Hepes, pH 8.0, 0.15 M NaCl, Lineweaver and Burke plot, read-out: apparent Km), the Km amounted to 14 µM. In addition, the 1/V at Guinea pig serum ACE [2] (BenzPheAlaPro concentration 1.0 μM) stood at 1.50 mL·min/pmol; at Guinea pig serum ACE [2] (BenzPheAlaPro concentration 5.0 μM), 0.48 mL·min/pmol; on Guinea pig serum ACE [2] (BenzPheAlaPro concentration 10.0 μM), 0.24 mL·min/pmol; at Guinea pig serum ACE [2] (BenzPheAlaPro concentration 66.7 μM), 0.11 mL·min/pmol. In addition, the V (reaction velocity) on Guinea pig serum ACE [2] (BenzPheAlaPro concentration 1.0 μM, 0.05 M Hepes, pH 8.0, 0.15 M NaCl) stood at 0.67 pmol/min/mL; on Guinea pig serum ACE [2] (BenzPheAlaPro concentration 5.0 μM, 0.05 M Hepes, pH 8.0, 0.15 M NaCl) it was 2.08 pmol/min/mL; at Guinea pig serum ACE [2] (BenzPheAlaPro concentration 10.0 μM, 0.05 M Hepes, pH 8.0, 0.15 M NaCl), 4.17 pmol/min/mL; on Guinea pig serum ACE [2] (BenzPheAlaPro concentration 66.7 μM, 0.05 M Hepes, pH 8.0, 0.15 M NaCl) it was 9.09 pmol/min/mL. The “extraction into ethyl acetate” value in data set [3] (reaction terminated with dilute hydrochloric acid) is listed as “almost quantitatively”. In data set [3] (toluene and acidified reaction mixture in approximately equal volumes at room temperature), the “fraction entering the toluene phase” value was found to be 6%.
